Measured values: US8044022B2, “Hyaluronic acid binding peptides enhance host defense against pathogenic bacteria” (priority 2005, dated 2011)

What was measured:
Acapsular GAS = experiment: Fluorometry binding of FITC-conjugated peptide to capsule-deficient GAS; set-up: species or system Group A Streptococcus
Procedure: Bacterial strains: GAS strain 950771 is a moderately encapsulated M3 clinical isolate from a child with post-varicella necrotizing fasciitis and sepsis, and an isogenic capsule deficient mutant, 188, derived from 950771. GAS were grown in Todd-Hewitt broth (Difco) to mid-exponential phase OD650 of 0.15 at 37° C. for all experiments. Commercially available trypticase-soy agar medium supplemented with 5% vol/vol sheep blood (BAP)(PML Microbiologicals, British Columbia, Canada) were used for all plate cultures. S. equi s(ATCC 53185) and P. multocida (ATCC 11039) were purchased from ATCC and cultured as recommended. Briefly, S. equi was cultured in Todd-Hewitt broth and S. uberis and P. multocida were cultured in Brain heart infusion (Difco) to OD 650 of 0.15 at 37° C. Quantitative cultures were performed in parallel with each experiment to verify the multiplicity of infection (MOI) of the inoculum.
Binding of HABP to HA and HA-encapsulated bacteria: To assess whether HABP are able to associate specifically with the GAS capsule, bacteria were cultured to mid-log phase, for maximal HA capsule expression, and incubated with either 10 μg/ml of FITC-conjugated HABP01 or SCRM, with purified HA at 1 mg/ml, as a positive control, or an isogenic mutant strain of GAS deficient in HA capsule, as a negative control. A GAS-specific antibody was used to control for the number of bacteria per well.

GAS = experiment: Mouse soft tissue invasive infection model; set-up: species or system CBA/J mice; conditions: in vivo
Procedure: Mouse soft tissue invasive infection model: Female 4-6-week-old CBA/J mice (Jackson Laboratory, […].) were inoculated with GAS. Briefly, mice were anesthetized and the hair was shaved off the right flank. Approximately 1.5×10^5 cfu of GAS from an early log-phase broth culture were suspended in 50 μl of sterile PBS or HABP and inoculated just under the surface of the skin with a 27-guage needle. The animals were observed twice daily for 3-5 days. Serial tail vein bleeds were performed daily and 50 μl of blood was inoculated on BAP for enumeration of viable bacterial CFU and incubated at 37° C. for 24 hours. Animals surviving the experiment or appearing moribund at any time were euthanized and the spleen removed using aseptic technique. The spleen was homogenized in 1 ml of THB and 100 μl of homogenate plated on BAP. In some experiments animals were euthanized at various time points during infection and tissue sections from the inoculation site were prepared for histopathological examination.
HABP-treated mice repeatedly indicated a 24-hour to 48-hour delay in dissemination of bacteria from the inoculation site compared to controls. […] The delayed dissemination correlated with a reduced mortality 24 hours after infection, but once dissemination occurred, HABP-treated mice died rapidly. Histopathologic analysis of the infection site indicated typical lateral GAS dissemination. […]

HKSVSRHTSMRHSTM [SCRM, reference compound]
binding to unencapsulated GAS (in words) (Acapsular GAS; fluorometry, HABP35 also confocal microscopy, data not shown): did not bind
Relative binding (Acapsular GAS; substrate in well: Acapsular GAS, 10 μg/ml FITC-conjugated peptide): 1490 ± 40 relative fluorescent units
PMNs at the infection site (confocal microscopy of tissue sections) (GAS): numerous polymorphonuclear leukocytes
